The values that follow come from patent publication US9776972B2, “Pyrazole derivatives as arginine methyltransferase inhibitors and uses thereof” (priority 2013, dated 2017).

Test [1] addresses T1, human PRMT6 (Homo sapiens, UniProt Q96LA8).
T1 construct: Flag-PRMT6-His; made in house; host or cells: HEK 293F cells (BacMam baculovirus)
The test can be described thus: PRMT6 Biochemical Assay (3H-SAM Flashplate, peptide substrate). The settings on record: Biochemical IC50 PRMT6, single experiment or average of multiple experiments. The text has this: S-adenosylmethionine (SAM), S-adenosylhomocysteine (SAH), bicine, Tween20, dimethylsulfoxide (DMSO), bovine skin gelatin (BSG), sodium butyrate and Tris(2-carboxyethyl)phosphine hydrochloride solution (TCEP) were purchased from Sigma-Aldrich at the highest level of purity possible. ^3H-SAM was purchase from American Radiolabeled Chemicals with a specific activity of 80 Ci/mmol. 384-well streptavidin Flashplates were purchased from PerkinElmer.
Peptide representative of human histone H4 residues 36-50 was synthesized with an N-terminal linker-affinity tag motif and a C-terminal amide cap by 21st Century Biochemicals.
The amplified gene was subcloned into pFastBacMam (Viva Biotech).
Recombinant baculovirus were generated according to Bac-to-Bac kit instructions (Life Technologies). […] Infections were carried out at 37° C. for 48 hours, harvested by centrifugation, and stored at −80° C. for purification.
Column was washed with 20 mM imidazole in the same buffer and Flag-PRMT6-His was eluted with 150 mM imidazole. […] Flag-PRMT6-His was eluted with 200 ug/ml FLAG peptide in the same buffer. Pooled fractions were dialysed in 20 mM Tris, 150 mM NaCl, 10% glycerol and 5 mM β-mercaptoethanol, pH 7.8.
General Procedure for PRMT6 Enzyme Assays on Peptide Substrates.
(§1) The assays were all performed in a buffer consisting of 20 mM Bicine (pH=7.6), 1 mM TCEP, 0.005% BSG, and 0.002% Tween 20, prepared on the day of use. […] DMSO (1 ul) was added to Columns 11, 12, 23, 24, rows A-H for the maximum signal control and 1 ul of SAH, a known product and inhibitor of PRMT6, was added to columns 11, 12, 23, 24, rows I-P for the minimum signal control. A cocktail (40 ul) containing the PRMT6 enzyme was added by Multidrop Combi (Thermo-Fisher). The compounds were allowed to incubate with PRMT6 for 30 min at room temperature, then a cocktail (10 ul) containing SAM and peptide was added to initiate the reaction (final volume=51 ul). […] The assays were stopped by the addition of non-radiolabeled SAM (10 ul) to a final concentration of 400 uM, which dilutes the ^3H-SAM to a level where its incorporation into the peptide substrate is no longer detectable. 50 ul of the reaction in the 384-well polypropylene plate was then transferred to a 384-well Flashplate and the biotinylated peptides were allowed to bind to the streptavidin surface for at least 1 hour before being washed once with 0.1% Tween20 in a Biotek ELx405 plate washer. The plates were then read in a PerkinElmer TopCount plate reader to measure the quantity of ^3H-labeled peptide bound to the Flashplate surface, measured as disintegrations per minute (dpm) or alternatively, referred to as counts per minute (cpm).
(§2) Where dpm=disintegrations per minute, cmpd=signal in assay well, and min and max are the respective minimum and maximum signal controls.
(§3) Where top and bottom are the normally allowed to float, but may be fixed at 100 or 0 respectively in a 3-parameter fit. The Hill Coefficient normally allowed to float but may also be fixed at 1 in a 3-parameter fit. Y is the % inhibition and X is the compound concentration.

The target in test [2] is human PRMT8 (Homo sapiens, UniProt Q9NR22). The test can be described thus: PRMT8 Biochemical Assay (3H-SAM Flashplate, peptide substrate). The following applies: single experiment or average of multiple experiments.
Text: S-adenosylmethionine (SAM), S-adenosylhomocysteine (SAH), bicine, Tween20, dimethylsulfoxide (DMSO), bovine skin gelatin (BSG), isopropyl-β-D-thiogalactopyranoside (IPTG), and Tris(2-carboxyethyl)phosphine hydrochloride solution (TCEP) were purchased from Sigma-Aldrich at the highest level of purity possible. ^3H-SAM was purchase from American Radiolabeled Chemicals with a specific activity of 80 Ci/mmol. 384-well streptavidin Flashplates were purchased from PerkinElmer.
Peptide representative of human histone H4 residues 31-45 was synthesized with an N-terminal linker-affinity tag motif and a C-terminal amide cap by 21st Century Biochemicals.
E. coli (BL21(DE3) Gold, Stratagene) made competent by the CaCl2 method were transformed with the PRMT8 construct and ampicillin selection. Protein over-expression was accomplished by growing the PRMT8 expressing E. coli clone and inducing expression with 0.3 mM IPTG at 16° C. The culture was grown for 12 hours, harvested by centrifugation, and stored at −80° C. for purification.
GST-tagged PRMT8 was eluted with 50 mM Tris, 2 mM glutathione, pH 7.8. Pooled fractions were cleaved by thrombin (10 U) and dialysed in buffer A. GST was removed by reloading the cleaved protein sample onto glutathione sepharose column and PRMT8 was collected in the flow-through fractions. PRMT8 was purified further by ceramic hydroxyapatite chromatography. The column was washed with 50 mM phosphate buffer, 100 mM NaCl, 5% glycerol, 5 mM β-mercaptoethanol, pH 7.8 and PRMT8 was eluted by 100 mM phosphate in the same buffer. Protein was concentrated and buffer was exchanged to 50 mM Tris, 300 mM NaCl, 10% glycerol, 5 mM β-mercaptoethanol, pH 7.8 by ultrafiltration.
General Procedure for PRMT8 Enzyme Assays on Peptide Substrates.
as §1, with “of PRMT8,” for “of PRMT6,”, “the PRMT8” for “the PRMT6”, “with PRMT8” for “with PRMT6”, “containing ^3H-SAM” for “containing SAM”
as §2, §3

The target of test [3] is T2, human PRMT1 (Homo sapiens, UniProt Q99873).
T2 construct: GST-tagged PRMT1; made in house; host or cells: High Five insect cells (baculovirus)
The test can be described thus: PRMT1 Biochemical Assay (3H-SAM Flashplate, peptide substrate). The settings on record: single experiment or average of multiple experiments.
Text: S-adenosylmethionine (SAM), S-adenosylhomocysteine (SAH), bicine, Tween20, dimethylsulfoxide (DMSO), bovine skin gelatin (BSG), and Tris(2-carboxyethyl)phosphine hydrochloride solution (TCEP) were purchased from Sigma-Aldrich at the highest level of purity possible. ^3H-SAM was purchase from American Radiolabeled Chemicals with a specific activity of 80 Ci/mmol. 384-well streptavidin Flashplates were purchased from PerkinElmer.
Recombinant baculovirus were generated according to Bac-to-Bac kit instructions (Life Technologies). […] Infections were carried out at 27° C. for 48 hours, harvested by centrifugation, and stored at −80° C. for purification.
GST-tagged PRMT1 was eluted with 50 mM Tris, 2 mM glutathione, pH 7.8, dialysed in buffer A and concentrated to 1 mg/mL.
General Procedure for PRMT1 Enzyme Assays on Peptide Substrates.
as §1, with “PRMT1,” for “PRMT6,”, “PRMT1” for “PRMT6”, “300” for “400”
as §2, §3

Test [4] deals with mono-methyl arginine in RKO cells. The test is described as follows: RKO Methylation Assay, In Cell Western (ICW) for mono-methyl arginine and DNA content. It counts as cell-based. The following applies: Homo sapiens, RKO, 72 h, read-out: EC30 (In Cell Western data, Numerical, μM). The text has this:
RKO adherent cells were purchased from ATCC (American Type Culture Collection), Manassas, Va., USA. DMEM/Glutamax medium, penicillin-streptomycin, heat inactivated fetal bovine serum, 0.05% trypsin and D-PBS were purchased from Life Technologies, Grand Island, N.Y., USA. Odyssey blocking buffer, 800CW goat anti-rabbit IgG (H+L) antibody, and Licor Odyssey infrared scanner were purchased from Licor Biosciences, Lincoln, Nebr., USA. Mono-methyl arginine antibody was purchased from Cell Signaling Technology, Danvers, Mass., USA. Methanol was purchased from VWR, Franklin, Mass., USA. 10% Tween 20 was purchased from KPL, Inc., Gaithersburg, Md., USA. DRAQ5 was purchased from Biostatus Limited, Leicestershire, UK.
RKO adherent cells were maintained in growth medium (DMEM/Glutamax medium supplemented with 10% v/v heat inactivated fetal bovine serum and 100 units/mL penicillin-streptomycin) and cultured at 37° C. under 5% CO2.
Cell Treatment, in Cell Western (ICW) for Detection of Mono-Methyl Arginine and DNA Content.
RKO cells were seeded in assay medium at a concentration of 20,000 cells per mL to a poly-D-lysine coated 384 well culture plate (BD Biosciences 356697) with 50 μL per well. Compound (100 nL) from a 96-well source plate was added directly to 384 well cell plate. Plates were incubated at 37° C., 5% CO2 for 72 hours. After three days of incubation, plates were brought to room temperature outside of the incubator for ten minutes and blotted on paper towels to remove cell media. 50 μL of ice cold 100% methanol was added directly to each well and incubated for 30 min at room temperature. After 30 min, plates were transferred to a Biotek EL406 plate washer and washed 2 times with 100 μL per well of wash buffer (1×PBS). Next 60 μL per well of Odyssey blocking buffer (Odyssey Buffer with 0.1% Tween 20 (v/v)) were added to each plate and incubated 1 hour at room temperature. Blocking buffer was removed and 20 μL per well of primary antibody was added (mono-methyl arginine diluted 1:200 in Odyssey buffer with 0.1% Tween 20 (v/v)) and plates were incubated overnight (16 hours) at 4° C. Plates were washed 5 times with 100 μL per well of wash buffer. Next 20 μL per well of secondary antibody was added (1:200 800CW goat anti-rabbit IgG (H+L) antibody, 1:1000 DRAQ5 (Biostatus limited) in Odyssey buffer with 0.1% Tween 20 (v/v)) and incubated for 1 hour at room temperature. The plates were washed 5 times with 100 μL per well wash buffer then 2 times with 100 μL per well of water. Plates were allowed to dry at room temperature then imaged on the Licor Odyssey machine which measures integrated intensity at 700 nm and 800 nm wavelengths. Both 700 and 800 channels were scanned.
First, the ratio for each well was determined by:
Each plate included fourteen control wells of DMSO only treatment (minimum activation) as well as fourteen control wells for maximum activation treated with 20 μM of a reference compound. The average of the ratio values for each control type was calculated and used to determine the percent activation for each test well in the plate. Reference compound was serially diluted three-fold in DMSO for a total of nine test concentrations, beginning at 20 μM. Percent activation was determined and EC30 curves were generated using triplicate wells per concentration of compound.

T1 sequence (Q96LA8 with tags, fused parts or gaps): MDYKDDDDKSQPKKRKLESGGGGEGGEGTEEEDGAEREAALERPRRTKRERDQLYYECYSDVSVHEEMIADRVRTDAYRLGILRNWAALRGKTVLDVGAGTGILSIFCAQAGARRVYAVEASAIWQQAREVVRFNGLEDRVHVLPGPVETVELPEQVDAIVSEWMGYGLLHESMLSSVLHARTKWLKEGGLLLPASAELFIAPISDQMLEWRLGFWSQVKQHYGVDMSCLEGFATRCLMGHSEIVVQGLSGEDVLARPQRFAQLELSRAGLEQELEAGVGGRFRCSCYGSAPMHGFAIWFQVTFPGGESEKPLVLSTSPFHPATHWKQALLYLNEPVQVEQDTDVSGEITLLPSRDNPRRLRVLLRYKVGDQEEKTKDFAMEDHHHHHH
T2 sequence (Q99873 with tags, fused parts or gaps): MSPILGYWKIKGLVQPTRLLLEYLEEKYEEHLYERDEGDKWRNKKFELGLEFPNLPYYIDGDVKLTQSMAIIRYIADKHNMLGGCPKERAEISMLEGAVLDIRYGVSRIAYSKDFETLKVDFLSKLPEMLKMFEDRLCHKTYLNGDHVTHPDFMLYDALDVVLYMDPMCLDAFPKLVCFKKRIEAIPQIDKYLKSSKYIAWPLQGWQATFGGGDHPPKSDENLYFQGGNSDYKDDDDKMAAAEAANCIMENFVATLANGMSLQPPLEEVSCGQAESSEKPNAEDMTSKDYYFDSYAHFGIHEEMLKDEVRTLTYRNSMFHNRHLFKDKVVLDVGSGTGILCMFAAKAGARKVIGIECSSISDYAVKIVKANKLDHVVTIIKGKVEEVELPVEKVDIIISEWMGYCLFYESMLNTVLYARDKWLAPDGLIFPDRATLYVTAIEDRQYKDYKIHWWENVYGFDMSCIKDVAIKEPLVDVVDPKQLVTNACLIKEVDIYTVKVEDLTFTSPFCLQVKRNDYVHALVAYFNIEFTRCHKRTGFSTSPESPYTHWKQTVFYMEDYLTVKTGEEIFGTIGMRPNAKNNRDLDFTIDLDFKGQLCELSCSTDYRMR
Sequence of human PRMT8 (Q9NR22 whole entry): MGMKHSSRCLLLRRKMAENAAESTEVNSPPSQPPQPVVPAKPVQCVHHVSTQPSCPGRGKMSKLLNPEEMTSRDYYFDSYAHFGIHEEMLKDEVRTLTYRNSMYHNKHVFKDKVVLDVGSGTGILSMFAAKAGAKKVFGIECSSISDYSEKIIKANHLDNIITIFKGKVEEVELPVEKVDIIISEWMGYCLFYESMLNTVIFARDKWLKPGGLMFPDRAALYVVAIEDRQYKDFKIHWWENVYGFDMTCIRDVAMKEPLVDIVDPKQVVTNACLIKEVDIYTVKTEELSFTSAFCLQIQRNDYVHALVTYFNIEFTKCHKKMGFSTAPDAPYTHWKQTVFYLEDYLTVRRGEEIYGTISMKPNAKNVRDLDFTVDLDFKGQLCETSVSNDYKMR

As usually defined, the IC50 is the concentration that inhibits the measured activity by half. Read a high IC50 as a need for much substance. Turning to `CNCCN(C)Cc1c[nH]nc1-c1ccccc1Oc1ccccc1` [Compound 36], the values for the half-maximal inhibitory concentration (IC50) in test [1] and in test [2] were 2440 nM and 22400 nM, respectively.

In the case of `CNCCN(C)Cc1c[nH]nc1-c1ccccc1OC(F)(F)F` [Compound 40], the half-inhibitory concentration (IC50) in test [3] stood at 700 nM; in test [1] it was 680 nM; in test [2], 6760 nM.

Consider `CNCCN(C)Cc1c[nH]nc1-c1cc(Cl)ccc1OC` [Compound 53], for which the half-maximal inhibitory concentration (IC50) turned out to be 3160 nM in test [3], 968 nM in test [1] and 12800 nM in test [2].

With `CNCCN(C)Cc1c[nH]nc1-c1cccc(OC)c1OC` [Compound 54], the IC50 in test [3] is 569 nM; in test [1], 182 nM; in test [2] it was 7500 nM.

Consider `CCNCCN(C)Cc1c[nH]nc1-c1ccc(F)cc1` [Compound 60], for which the results for the half-inhibitory concentration (IC50) in test [3], in test [1] and in test [2] were 170 nM, 53.2 nM and 1540 nM, respectively.

As for `CN(CCN)Cc1c[nH]nc1-c1cc(F)ccc1Cl` [Compound 106], the figures for the 50% inhibitory concentration (IC50) in test [3], in test [1] and in test [2] were 336 nM, 49.8 nM and 3110 nM, respectively.

As for `CN(CCN)Cc1cnn(CC(O)CO)c1-c1ccc(F)cc1` (centres unmarked) [Compound 113], the IC50 in test [3] amounted to 1490 nM; in test [1] it was 594 nM; in test [2], 8520 nM.

`CC(C)CC(=O)N1CCN(c2ccc(-c3n[nH]cc3CN(C)CCN)cc2)CC1` [Compound 180]: the concentration for half-maximal inhibition (IC50) in test [3] is 648 nM; in test [1] it was 20.5 nM; in test [2], 5790 nM.

Regarding `CN(CCNC1CC1)Cc1c[nH]nc1-c1ccc(C#N)cc1` [Compound 183], the values for the half-inhibitory concentration (IC50) in test [3], in test [1] and in test [2] were 2420 nM, 260 nM and 4820 nM, respectively.

By EC30 is commonly meant the point of the concentration-response curve where the effect stands at 30%. On to `CNCCN(C)Cc1c[nH]nc1-c1ccc(Oc2cccc(C(=O)NC)c2)cc1` [Compound 263], for which the half-inhibitory concentration (IC50) is 4.35 nM in test [3] and 1.92 nM in test [1]. In addition, in test [4], the concentration for an effect of 30% (EC30) stood at 1.29 µM.
